Experimental data from patent publication US9850283B2, “Macrocyclic inhibitors of the PD-1/PD-L1 and CD80(B7-1)/PD-L1 protein/protein interactions” (BRISTOL-MYERS SQUIBB COMPANY, priority 2013, dated 2017).
Read-outs that look alike come from different tables or passages of the source. Positions of bridges follow the written chain, without caps; N, C: chain ends. Non-standard residues stand in square brackets, D forms with d. Residues, ends and D or L forms follow the SMILES beside them. Hyp = O=C(O)[C@@H]1C[C@@H](O)CN1; NMeNle = CCCC[C@H](NC)C(=O)O; NMeA = CN[C@@H](C)C(=O)O; Orn = NCCC[C@H](N)C(=O)O; Dab = NCC[C@H](N)C(=O)O; Sar = CNCC(=O)O

Legend:
Human PD-L1/PD-1 = biological target: T1, Human PD-L1/PD-1 (Homo sapiens, UniProt Q9NZQ7); assay: HTRF PD-1-Ig/PD-L1-His binding assay (human PD-L1)
T1 construct: made in house; host or cells: HEK293T
Method in brief: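 Interaction of Fc-tagged soluble PD-1 with His-tagged soluble PD-L1 is monitored by time-resolved FRET. Donor is europium cryptate anti-Ig (1 nM final) and acceptor is APC anti-His (20 nM final). Assay buffer is dPBS with 0.1% BSA and 0.05% Tween-20.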

[1] = biological target: T2, LK35.2-hPD-L1 cells / PE-labeled PD-1-Ig (Homo sapiens, UniProt Q9NZQ7); assay: LK35.2-hPD-L1 cell binding high-content screening assay; type: cell-based; conditions: cell binding assay, cell line not given
T2 construct: expressed in transfected cells; host or cells: LK35.2 mouse B cell line
Method in brief: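 Readout: high-content imaging of PE-PD-1-Ig bound to LK35.2-hPD-L1 cells. Cells plated overnight (RPMI/10% FCS); compound + 1 nM PE-PD-1-Ig, 1 h, 37 °C; 3× dPBS wash before imaging.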

[2] = cluster symbol, read-out: HTRF IC50 cluster
[3] = cluster symbol, read-out: CBA IC50 cluster

T1 sequence (Q9NZQ7 with tags, fused parts or gaps): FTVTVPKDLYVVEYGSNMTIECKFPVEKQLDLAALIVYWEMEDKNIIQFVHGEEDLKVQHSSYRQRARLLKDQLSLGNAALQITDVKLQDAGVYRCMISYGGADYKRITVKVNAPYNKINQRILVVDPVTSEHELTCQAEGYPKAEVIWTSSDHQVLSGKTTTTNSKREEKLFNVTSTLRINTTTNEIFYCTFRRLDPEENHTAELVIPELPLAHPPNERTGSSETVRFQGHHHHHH
T2 sequence (Q9NZQ7 19-290): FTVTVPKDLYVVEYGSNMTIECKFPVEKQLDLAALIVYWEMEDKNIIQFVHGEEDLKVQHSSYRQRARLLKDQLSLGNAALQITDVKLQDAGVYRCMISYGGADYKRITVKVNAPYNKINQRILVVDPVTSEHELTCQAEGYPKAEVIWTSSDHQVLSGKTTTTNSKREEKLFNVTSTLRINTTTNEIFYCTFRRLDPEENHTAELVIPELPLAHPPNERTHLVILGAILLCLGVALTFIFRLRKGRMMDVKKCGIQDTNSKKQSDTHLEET

Compound | IC50 (Human PD-L1/PD-1; [2]) | IC50 [1, 3] | IC50 (Human PD-L1/PD-1; value given instead of cluster, read-out: HTRF IC50 value) | IC50 ([1]; value given instead of cluster, read-out: CBA IC50 value)
CCCC[C@H]1C(=O)N(C)[C@@H](CCCC)C(=O)NCC(=O)N[C@H](C(=O)NCC(N)=O)CSCC(=O)N[C@@H](Cc2ccccc2)C(=O)N(C)[C@@H](C)C(=O)N[C@@H](CC(N)=O)C(=O)N2CCC[C@H]2C(=O)N[C@@H](Cc2cnc[nH]2)C(=O)N[C@@H](CC(C)C)C(=O)N(C)CC(=O)N[C@@H](Cc2c[nH]c3ccccc23)C(=O)N[C@@H](CO)C(=O)N[C@@H](Cc2c[nH]c3ccccc23)C(=O)N1C [Example 5015] ({CH2CO}-F[NMeA]NPHL[Sar]WSW[NMeNle][NMeNle]GCG-NH2; thioether N-14) | 6.76 to 30.3 nM | 4.78 to 72.9 nM |  | 
CCCC[C@H]1C(=O)N(C)[C@@H](CCCC)C(=O)N[C@@H](C(C)C)C(=O)N[C@H](C(=O)NCC(N)=O)CSCC(=O)N[C@@H](Cc2ccccc2)C(=O)N(C)[C@@H](C)C(=O)N[C@@H](CC(N)=O)C(=O)N2CCC[C@H]2C(=O)N[C@@H](Cc2cnc[nH]2)C(=O)N[C@@H](CC(C)C)C(=O)N(C)CC(=O)N[C@@H](Cc2c[nH]c3ccccc23)C(=O)N[C@@H](CO)C(=O)N[C@@H](Cc2c[nH]c3ccccc23)C(=O)N1C [Example 5016] ({CH2CO}-F[NMeA]NPHL[Sar]WSW[NMeNle][NMeNle]VCG-NH2; thioether N-14) | 6.76 to 30.3 nM | 4.78 to 72.9 nM |  | 
CCCC[C@H]1C(=O)N(C)[C@@H](CCCC)C(=O)N[C@@H](CC(C)C)C(=O)N[C@H](C(=O)NCC(N)=O)CSCC(=O)N[C@@H](Cc2ccccc2)C(=O)N(C)[C@@H](C)C(=O)N[C@@H](CC(N)=O)C(=O)N2CCC[C@H]2C(=O)N[C@@H](Cc2cnc[nH]2)C(=O)N[C@@H](CC(C)C)C(=O)N(C)CC(=O)N[C@@H](Cc2c[nH]c3ccccc23)C(=O)N[C@@H](CO)C(=O)N[C@@H](Cc2c[nH]c3ccccc23)C(=O)N1C [Example 5017] ({CH2CO}-F[NMeA]NPHL[Sar]WSW[NMeNle][NMeNle]LCG-NH2; thioether N-14) |  |  | 11.3 nM | 12.9 nM
CCCC[C@H]1C(=O)N(C)[C@@H](CCCC)C(=O)N[C@@H]([C@@H](C)CC)C(=O)N[C@H](C(=O)NCC(N)=O)CSCC(=O)N[C@@H](Cc2ccccc2)C(=O)N(C)[C@@H](C)C(=O)N[C@@H](CC(N)=O)C(=O)N2CCC[C@H]2C(=O)N[C@@H](Cc2cnc[nH]2)C(=O)N[C@@H](CC(C)C)C(=O)N(C)CC(=O)N[C@@H](Cc2c[nH]c3ccccc23)C(=O)N[C@@H](CO)C(=O)N[C@@H](Cc2c[nH]c3ccccc23)C(=O)N1C [Example 5018] ({CH2CO}-F[NMeA]NPHL[Sar]WSW[NMeNle][NMeNle]ICG-NH2; thioether N-14) | 6.76 to 30.3 nM | 4.78 to 72.9 nM |  | 
CCCC[C@H]1C(=O)N(C)[C@@H](CCCC)C(=O)N[C@@H](CCCNC(=N)N)C(=O)N[C@H](C(=O)NCC(N)=O)CSCC(=O)N[C@@H](Cc2ccccc2)C(=O)N(C)[C@@H](C)C(=O)N[C@@H](CO)C(=O)N2CCC[C@H]2C(=O)N[C@@H](Cc2cnc[nH]2)C(=O)N[C@@H](CC(C)C)C(=O)N(C)CC(=O)N[C@@H](Cc2c[nH]c3ccccc23)C(=O)N[C@@H](CO)C(=O)N[C@@H](Cc2c[nH]c3ccccc23)C(=O)N1C [Example 5019] ({CH2CO}-F[NMeA]SPHL[Sar]WSW[NMeNle][NMeNle]RCG-NH2; thioether N-14) | 6.76 to 30.3 nM | 4.78 to 72.9 nM |  | 
CCCC[C@H]1C(=O)N(C)[C@@H](CCCC)C(=O)N[C@@H](CCCNC(=N)N)C(=O)N[C@H](C(=O)NCC(N)=O)CSCC(=O)N[C@@H](Cc2ccccc2)C(=O)N(C)[C@@H](C)C(=O)N[C@@H]([C@@H](C)O)C(=O)N2CCC[C@H]2C(=O)N[C@@H](Cc2cnc[nH]2)C(=O)N[C@@H](CC(C)C)C(=O)N(C)CC(=O)N[C@@H](Cc2c[nH]c3ccccc23)C(=O)N[C@@H](CO)C(=O)N[C@@H](Cc2c[nH]c3ccccc23)C(=O)N1C [Example 5020] ({CH2CO}-F[NMeA]TPHL[Sar]WSW[NMeNle][NMeNle]RCG-NH2; thioether N-14) | > 30.5 nM | > 74.3 nM |  | 
CCCC[C@H]1C(=O)N(C)[C@@H](CCCC)C(=O)N[C@@H]([C@@H](C)O)C(=O)N[C@H](C(=O)NCC(N)=O)CSCC(=O)N[C@@H](Cc2ccccc2)C(=O)N(C)[C@@H](C)C(=O)N[C@@H](CC(N)=O)C(=O)N2CCC[C@H]2C(=O)N[C@@H](Cc2cnc[nH]2)C(=O)N[C@@H](CC(C)C)C(=O)N(C)CC(=O)N[C@@H](Cc2c[nH]c3ccccc23)C(=O)N[C@@H](CO)C(=O)N[C@@H](Cc2c[nH]c3ccccc23)C(=O)N1C [Example 5021] ({CH2CO}-F[NMeA]NPHL[Sar]WSW[NMeNle][NMeNle]TCG-NH2; thioether N-14) | > 30.5 nM | > 74.3 nM |  | 
CCCC[C@H]1C(=O)N(C)[C@@H](CCCC)C(=O)N[C@@H](CCCNC(=N)N)C(=O)N[C@H](C(=O)NCC(N)=O)CSCC(=O)N[C@@H](Cc2ccc(O)cc2)C(=O)N(C)[C@@H](C)C(=O)N[C@@H](CC(N)=O)C(=O)N2CCC[C@H]2C(=O)N[C@@H](Cc2cnc[nH]2)C(=O)N[C@@H](CCN)C(=O)N2C[C@H](O)C[C@H]2C(=O)N[C@@H](Cc2c[nH]c3ccccc23)C(=O)N[C@@H](CO)C(=O)N[C@@H](Cc2c[nH]c3ccccc23)C(=O)N1C [Example 5022] ({CH2CO}-Y[NMeA]NPH[Dab][Hyp]WSW[NMeNle][NMeNle]RCG-NH2; thioether N-14) | 6.76 to 30.3 nM | 0.158 to 4.71 nM |  | 
CCCC[C@H]1C(=O)N(C)[C@@H](CCCC)C(=O)N[C@@H](CCCNC(=N)N)C(=O)N[C@H](C(=O)NCC(N)=O)CSCC(=O)N[C@@H](Cc2ccc(O)cc2)C(=O)N(C)[C@@H](C)C(=O)N[C@@H](CC(N)=O)C(=O)N2CCC[C@H]2C(=O)N[C@@H](Cc2cnc[nH]2)C(=O)N[C@@H](CCCN)C(=O)N2C[C@H](O)C[C@H]2C(=O)N[C@@H](Cc2c[nH]c3ccccc23)C(=O)N[C@@H](CO)C(=O)N[C@@H](Cc2c[nH]c3ccccc23)C(=O)N1C [Example 5023] ({CH2CO}-Y[NMeA]NPH[Orn][Hyp]WSW[NMeNle][NMeNle]RCG-NH2; thioether N-14) | 6.76 to 30.3 nM | 4.78 to 72.9 nM |  | 
CCCC[C@H]1C(=O)N(C)[C@@H](CCCC)C(=O)N[C@@H](CCCNC(=N)N)C(=O)N[C@H](C(=O)NCC(N)=O)CSCC(=O)N[C@@H](Cc2ccc(O)cc2)C(=O)N(C)[C@@H](C)C(=O)N[C@@H](CC(N)=O)C(=O)N2CCC[C@H]2C(=O)N[C@@H](Cc2cnc[nH]2)C(=O)N[C@@H](CCCCN)C(=O)N2C[C@H](O)C[C@H]2C(=O)N[C@@H](Cc2c[nH]c3ccccc23)C(=O)N[C@@H](CO)C(=O)N[C@@H](Cc2c[nH]c3ccccc23)C(=O)N1C [Example 5024] ({CH2CO}-Y[NMeA]NPHK[Hyp]WSW[NMeNle][NMeNle]RCG-NH2; thioether N-14) | 0.385 to 6.74 nM | 0.158 to 4.71 nM |  | 
CCCC[C@H]1C(=O)N(C)CC(=O)N[C@@H](CCCNC(=N)N)C(=O)N[C@H](C(=O)NCC(N)=O)CSCC(=O)N[C@@H](Cc2ccccc2)C(=O)N(C)[C@@H](C)C(=O)N[C@@H](CC(N)=O)C(=O)N2CCC[C@H]2C(=O)N[C@@H](Cc2cnc[nH]2)C(=O)N[C@@H](CC(C)C)C(=O)N(C)CC(=O)N[C@@H](Cc2c[nH]c3ccccc23)C(=O)N[C@@H](CO)C(=O)N[C@@H](Cc2c[nH]c3ccccc23)C(=O)N1C [Example 5027] (HELM PEPTIDE1{[O=C(C[*:3])[*:2]].F.[meA].N.P.H.L.[Sar].W.S.W.[CCCC[C@@H](C(=O)[*:2])N(C)[*:1]].[Sar].R.C.G.[am]}$PEPTIDE1,PEPTIDE1,1:R3-15:R3$$$V2.0) | > 30.5 nM | > 74.3 nM |  | 
CCCC[C@H]1C(=O)N(C)[C@@H](CCCC)C(=O)N[C@@H](CCN)C(=O)N[C@H](C(=O)NCC(N)=O)CSCC(=O)N[C@@H](Cc2ccc(O)cc2)C(=O)N(C)[C@@H](C)C(=O)N[C@@H](CC(N)=O)C(=O)N2CCC[C@H]2C(=O)N[C@@H](Cc2cnc[nH]2)C(=O)N[C@@H](CCC(=O)O)C(=O)N2C[C@H](O)C[C@H]2C(=O)N[C@@H](Cc2c[nH]c3ccccc23)C(=O)N[C@@H](CCN)C(=O)N[C@@H](Cc2c[nH]c3ccccc23)C(=O)N1C [Example 5028] ({CH2CO}-Y[NMeA]NPHE[Hyp]W[Dab]W[NMeNle][NMeNle][Dab]CG-NH2; thioether N-14) | 0.385 to 6.74 nM | 0.158 to 4.71 nM |  | 
CCCC[C@H]1C(=O)N(C)[C@@H](CCCC)C(=O)N[C@@H](CCN)C(=O)N[C@H](C(=O)NCC(N)=O)CSCC(=O)N[C@@H](Cc2ccc(O)cc2)C(=O)N(C)[C@@H](C)C(=O)N[C@@H](CC(=O)O)C(=O)N2CCC[C@H]2C(=O)N[C@@H](Cc2cnc[nH]2)C(=O)N[C@@H](CCC(=O)O)C(=O)N2C[C@H](O)C[C@H]2C(=O)N[C@@H](Cc2c[nH]c3ccccc23)C(=O)N[C@@H](CO)C(=O)N[C@@H](Cc2c[nH]c3ccccc23)C(=O)N1C [Example 5029] ({CH2CO}-Y[NMeA]DPHE[Hyp]WSW[NMeNle][NMeNle][Dab]CG-NH2; thioether N-14) | 0.385 to 6.74 nM | 0.158 to 4.71 nM |  | 
CCCC[C@H]1C(=O)N(C)[C@@H](CCCC)C(=O)N[C@@H](CC(=O)O)C(=O)N[C@H](C(=O)NCC(N)=O)CSCC(=O)N[C@@H](Cc2ccccc2)C(=O)N(C)[C@@H](C)C(=O)N[C@@H](CC(N)=O)C(=O)N2CCC[C@H]2C(=O)N[C@@H](Cc2cnc[nH]2)C(=O)N[C@@H](CC(C)C)C(=O)N(C)CC(=O)N[C@@H](Cc2c[nH]c3ccccc23)C(=O)N[C@@H](CO)C(=O)N[C@@H](Cc2c[nH]c3ccccc23)C(=O)N1C [Example 5030] ({CH2CO}-F[NMeA]NPHL[Sar]WSW[NMeNle][NMeNle]DCG-NH2; thioether N-14) | > 30.5 nM | > 74.3 nM |  | 
